In patent US11655269B2, “Prodrug-type anticancer agent using cancer-specific enzymatic activity” (The University of Tokyo, priority 2018, dated 2023):
Each block holds one compound with its values, some of them ahead of it.

What was measured:
[1] = tested on: GGT; test: Enzymatic reaction with purified GGT, LC-MS analysis of products; format: biochemical
Method: (§1) Next, enzymatic reactions were carried out under the following conditions using the three compounds synthesized and purified enzymes.
(§2) Final compound concentration: 100 μM
(§3) Final enzyme concentration: 4 nM (β-Gal), 8.5 μg/mL (DPP-IV), 10 U/mL (GGT)
(§4) Reaction temperature: 37° C.
(§5) (2) Enzymatic Reaction Using DPP-IV and GGT
(§6) Instrument: 1260 Infinity (manufactured by Agilent Technologies, Inc.)
(§7) Column: Poroshell 120, 4.6×100 mm (manufactured by Agilent Technologies, Inc.)
(§8) Mobile phase A: water (0.01M ammonium formate)
(§9) Mobile phase B: 80% acetonitrile/water (0.01M ammonium formate)
Next, enzymatic reactions were carried out under the following conditions using the benzyl-position leaving group-converted derivatives synthesized and purified enzyme.
Final enzyme concentration: 10 U/mL (GGT)
Enzymatic reaction using GGT

[2] = tested on: SHIN3 cells (high GGT expression) and H226 cells (low GGT expression); test: CCK-8 assay, cells with high and low GGT expression; format: cell-based, human
Method: (§10) Next, it was verified whether compounds 1-3 can change the cell viability by functioning as a prodrug when administered to cells with high and low enzyme expression. The efficacy studies were carried out by using a general colorimetric method called CCK-8 assay (method for quantifying the dehydrogenase activity inside living cells through reduction of colorless WST-8 to orange formazan) to quantify the number of living cells. The CCK-8 assay evaluation method is described below.
(§11) The B-galactosidase-activated prodrug was evaluated using HEK/lac Z cells (cells derived from human kidney cells, high β-Gal expression) and HEK293 cells (cells derived from human kidney cells, low β-Gal expression). The DPP-IV-activated prodrug was evaluated using H226 cells (human lung squamous cell carcinoma cells, high DPP-IV expression) and H460 cells (human non-small cell epithelial lung cancer cells, low DPP-IV expression). The GGT-activated prodrug was evaluated using SHIN3 cells (human ovarian cancer cells, high GGT expression) and H226 cells (human lung squamous cell carcinoma cells, low GGT expression).
Each type of cell was seeded in 96-well plates (cell density: 1.0×10^4/well) and incubated overnight. The medium was exchanged for fresh medium, and the synthesized derivatives were added (final concentration 1-50 μM, 0.5% DMSO, n=3). After culturing the cells for another 24 hours, a Cell Counting Kit-8 (10 μL/well, manufactured by […]) was added. After 2.5 hours, the 450 nm absorbance was measured by a plate reader, and the number of viable cells was quantified.
Next, benzyl-position leaving group-converted derivatives were subjected to the CCK-8 assay described above.

[3] = tested on: HEK293 cells; test: CCK-8 assay, cells with low β-Gal expression; format: cell-based, human; settings: 50 μM, after 24 hours, FIG. 5
Method: as §10, §11
(§12) Each type of cell was seeded in 96-well plates (cell density: 1.0×10^4/well) and incubated overnight. […] After 2.5 hours, the 450 nm absorbance was measured by a plate reader, and the number of viable cells was quantified.

[4] = tested on: HEK/lac Z cells; test: CCK-8 assay, cells with high β-Gal expression; format: cell-based, human; settings: FIG. 5
Method: as §10, §11, §12

[5] = target: β-Gal (Escherichia coli, UniProt P00722); test: Enzymatic reaction with purified β-galactosidase, LC-MS analysis of products; format: biochemical; settings: 100 μM compound, 4 nM β-Gal, 37° C.; reaction product 2-hydroxybenzyl alcohol; FIG. 4
Method: as §1, §2, §3, §4
(1) Enzymatic Reaction Using β-Galactosidase
Instrument: ACQUITY UPLC (manufactured by Waters Corporation)
as §7, §8, §9

[6] = tested on: H226 cells (high DPP-IV expression) and H460 cells (low DPP-IV expression); test: CCK-8 assay, cells with high and low DPP-IV expression; format: cell-based, human; settings: H226 (high DPP-IV) vs H460 (low DPP-IV), 1-50 μM, 24 hours; FIG. 6
Method: as §10, §11, §12

[7] = target: DPP-IV (Homo sapiens, UniProt P27487); test: Enzymatic reaction with purified DPP-IV, LC-MS analysis of products; format: biochemical; settings: 100 μM compound, 8.5 μg/mL DPP-IV, 37° C.; reaction product 2-aminobenzyl alcohol; FIG. 4
Method: as §1, §2, §3, §4, §5, §6, §7, §8, §9

[8] = tested on: cocultured SHIN3 cells and H226 cells; test: Cell death observation under coculture conditions, time-lapse fluorescence imaging with EthD-1 (protocol 2); format: cell-based, human; settings: coculture of high and low GGT expression cells, 24 hr time-lapse imaging; FIG. 9
[9] = tested on: SHIN3 cells and H226 cells; test: Cell death observation by fluorescence imaging over time with EthD-1 (protocol 1); format: cell-based, human; settings: SHIN3 vs H226 cultured separately, imaging over 24 hr; FIG. 8
Source text: Since changing the types of cells and standardizing the medium to RPMI-1640 made coculture possible, the aim then became to observe cell death under coculture conditions and to construct a quantitative method. It was decided to conduct these studies using compound 3 for GGT (gGlu-FMA) based on the results obtained thus far, and the possibility of visually observing cell death by observation of fluorescence using one type of cell was first explored as an initial study (FIG. 8).
Scan mode: xyzt, x=512, y=512, z=4, t=24. Scale bar: 50 μm.

[10] = tested on: SHIN3 cells; test: Administration study in peritoneal dissemination model mice; format: in vivo; settings: 5 mg/kg intraperitoneally each day from day 7, imaged day 21 with gGlu-HMRG, vs PBS; FIG. 17
Method: Peritoneal dissemination model mice were created by intraperitoneal administration of SHIN3 cells (cancer cell line derived from ovarian cancer, high GGT activity) suspended in PBS. From day seven after cell dissemination, 5 mg/kg of gGlu-FMA or PBS (control) was administered intraperitoneally each day. On day 21 after cell dissemination, gGlu-HMRG was administered intraperitoneally, and the mice were sacrificed ten minutes later. After laparotomy, fluorescence images were acquired by a Maestro in vivo imaging device (FIG. 16).

[11] = tested on: SHIN3 cells and H226 cells; test: Efficacy evaluation by flow cytometry (protocol 3); format: cell-based, human; settings: 25 μM, 24-hr incubation; compared with +100 μM GGsTop and 0.25% DMSO control; FIG. 10
Method: On the other hand, since it is impossible to quantitatively discuss the extent to which the survival rates of high-expression/low-expression cells have changed, the present inventors studied whether this could be evaluated using flow cytometry (FIG. 10).
(Top) 25 μM model compound, (middle) 25 μM model compound+100 μM GGsTop, (bottom) 0.25% DMSO control. Analysis was carried out after 24-hr incubation.

Sequence of DPP-IV (P27487 whole entry, species assumed): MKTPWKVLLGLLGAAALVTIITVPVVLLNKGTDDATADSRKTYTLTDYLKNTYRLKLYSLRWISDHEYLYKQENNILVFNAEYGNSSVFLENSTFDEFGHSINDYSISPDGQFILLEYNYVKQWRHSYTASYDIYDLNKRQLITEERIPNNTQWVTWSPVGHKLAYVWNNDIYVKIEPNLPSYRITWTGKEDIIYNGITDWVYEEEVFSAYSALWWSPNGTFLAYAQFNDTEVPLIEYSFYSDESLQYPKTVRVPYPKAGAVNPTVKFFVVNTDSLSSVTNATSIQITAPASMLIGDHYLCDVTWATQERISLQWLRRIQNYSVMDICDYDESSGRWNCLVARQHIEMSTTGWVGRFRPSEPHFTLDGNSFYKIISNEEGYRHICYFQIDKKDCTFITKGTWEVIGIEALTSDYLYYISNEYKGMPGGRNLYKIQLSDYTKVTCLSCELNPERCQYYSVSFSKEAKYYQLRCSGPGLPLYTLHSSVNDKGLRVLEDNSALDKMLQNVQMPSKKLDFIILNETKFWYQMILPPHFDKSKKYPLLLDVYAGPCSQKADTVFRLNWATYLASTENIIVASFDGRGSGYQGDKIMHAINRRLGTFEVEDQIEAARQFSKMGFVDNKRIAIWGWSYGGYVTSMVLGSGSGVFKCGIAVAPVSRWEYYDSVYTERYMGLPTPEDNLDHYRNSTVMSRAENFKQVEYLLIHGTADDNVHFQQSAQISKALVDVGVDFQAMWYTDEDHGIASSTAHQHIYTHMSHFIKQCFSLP
Sequence of β-Gal (P00722 2-1024): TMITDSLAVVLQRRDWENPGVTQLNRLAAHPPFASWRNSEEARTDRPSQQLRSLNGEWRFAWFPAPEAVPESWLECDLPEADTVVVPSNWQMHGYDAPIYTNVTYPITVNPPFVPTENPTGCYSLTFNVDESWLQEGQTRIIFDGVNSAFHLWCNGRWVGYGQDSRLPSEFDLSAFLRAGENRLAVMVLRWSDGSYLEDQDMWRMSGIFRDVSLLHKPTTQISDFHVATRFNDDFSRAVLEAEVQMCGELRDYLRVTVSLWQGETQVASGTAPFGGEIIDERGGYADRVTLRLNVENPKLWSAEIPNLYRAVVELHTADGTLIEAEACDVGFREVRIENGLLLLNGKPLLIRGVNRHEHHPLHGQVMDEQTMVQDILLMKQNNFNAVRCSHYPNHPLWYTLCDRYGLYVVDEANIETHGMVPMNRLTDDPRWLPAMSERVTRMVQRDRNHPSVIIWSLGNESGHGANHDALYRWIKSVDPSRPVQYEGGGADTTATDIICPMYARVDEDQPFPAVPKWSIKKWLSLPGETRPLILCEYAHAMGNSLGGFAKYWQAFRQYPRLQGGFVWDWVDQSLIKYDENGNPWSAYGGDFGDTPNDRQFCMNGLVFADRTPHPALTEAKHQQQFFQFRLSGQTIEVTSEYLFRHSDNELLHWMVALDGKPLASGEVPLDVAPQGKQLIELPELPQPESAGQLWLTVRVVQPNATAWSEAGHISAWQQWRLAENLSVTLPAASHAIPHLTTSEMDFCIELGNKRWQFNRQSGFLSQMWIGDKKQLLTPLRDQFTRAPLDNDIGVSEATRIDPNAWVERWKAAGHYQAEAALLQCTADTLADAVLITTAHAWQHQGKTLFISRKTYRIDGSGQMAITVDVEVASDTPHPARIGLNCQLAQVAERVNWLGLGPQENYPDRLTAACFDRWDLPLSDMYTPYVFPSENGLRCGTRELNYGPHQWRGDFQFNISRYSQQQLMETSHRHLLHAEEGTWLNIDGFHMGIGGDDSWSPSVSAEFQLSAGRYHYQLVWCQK

SMILES: COP(=O)(CCC(N)C(=O)O)Oc1cccc(CC(=O)O)c1 (stereo not shown) [GGsTop, reference compound]
effect of inhibitor on the GGT enzymatic reaction of the model compound ([1]; inhibitor added at 100 μM): inhibited | effect of GGT inhibitor on survival rate of cells treated with the GGT prodrug ([2]; CCK-8, FIG. 7): completely restored the survival rate

SMILES: OCC1O[C@@H](Oc2ccccc2CF)C(O)C(O)[C@H]1O (stereo partly shown) [compound 1]
survival rate [3]: did not drop at all | survival rate ([4]; HEK/lac Z cells, 50 μM, after 24 hours): did not drop at all | difference in survival rate between high-expression and low-expression cells ([4]; HEK/lac Z vs HEK293, up to 50 μM, 24 hours): no significant difference | cleavage by β-Gal [5]: cleaved

cleavage by DPP-IV [7]: cleaved
SMILES: NCC(=O)N1CCC[C@H]1C(=O)Nc1ccccc1CF [compound 2]
changes in cell viability between cells with high and low enzyme expression [6]: changes in the cell viability were observed

SMILES: N[C@@H](CCC(=O)Nc1ccccc1CF)C(=O)O [compound 3]
selective cell damage in coculture (EthD-1 dead cell staining) [8]: selectively damages high-expression cells | cell death (EthD-1 dead cell staining) [9]: more cell death occurred in SHIN3 cells | cleavage by GGT ([1]; 100 μM compound, 10 U/mL GGT, 37° C., reaction product 2-aminobenzyl alcohol, FIG. 4): cleaved | tumors on the mesentery (macro and fluorescence images) [10]: Tumors appear to be decreased overall | cell death by flow cytometry (EthD-1 dead staining) [11]: selective cell death of SHIN3 cells | changes in cell viability between cells with high and low enzyme expression ([2]; SHIN3 (high GGT) vs H226 (low GGT), 1-50 μM, 24 hours, FIG. 7): changes in the cell viability were observed | cell type selectivity ([2]; SHIN3 vs H226, CCK-8, FIG. 7): high cell type selectivity | antitumor activity (CCK-8 assay) ([2]; concentration of 25 μM, FIG. 13): showed an effect
